Patent US6716851B2, “Substituted 2-aryl-4-arylaminopyrimidines and analogs as activators or caspases and inducers of apoptosis and the use thereof” (Cytovia, Inc., priority 2000, dated 2004)
pEC50: −log10 of the molar value. Like-named read-outs stand apart in the source and are kept apart here.

Legend:
MCF-7 cells = experiment: Cell proliferation assay (GI50) in MCF-7 cells; type: cell-based; conditions: Homo sapiens, MCF7; MCF-7, 48 h
Procedure: [Worded in the source for another cell line; this cell line is reported under the same test.] (§1) T-47D cells were grown and harvested as in Example 221. An aliquot of 90 μl of cells (2.2×10^4 cells/ml) was added to a well of a 96-well microtiter plate containing 10 μl of a 10% DMSO in RPMI-1640 media solution containing 1 nM to 100 μM of 4-(3-methoxyanilino)-2-(2-pyridinyl)-6-(trifluoromethyl)pyrimidine (0.1 nM to 10 μM final). An aliquot of 90 μl of cells was added to a well of a 96-well microtiter plate containing 10 μl of a 10% DMSO in RPMI-1640 media solution without compound as the control sample for maximal cell proliferation (AMax). The samples were mixed by agitation and then incubated at 37° C. for 48 h in a 5% CO2-95% humidity incubator. After incubation, the samples were removed from the incubator and 20 μl of CellTiter 96 AQueous One Solution Cell Proliferation^TM reagent (Promega) was added. The samples were mixed by agitation and incubated at 37° C. for 2-4 h in a 5% CO2-95% humidity incubator. Using an absorbance plate reader (Model 1420 Wallac Instruments), an initial reading (T=0) was made approximately 1-2 min after addition of the solution, employing absorbance at 490 nm. This determines the possible background absorbance of the test compounds. No absorbance for 4-(3-methoxyanilino)-2-(2-pyridinyl)-6-(trifluoromethyl)pyrimidine was found at 490 nm. After the 2-4 h incubation, the samples were read for absorbance as above (ATest). […]

[1] = test system: P388 (mouse leukemia cell line); experiment: Cell proliferation assay (GI50) in P388 cells; type: cell-based; conditions: P388, 48 h
Procedure: [Worded in the source for another organism; used here, by the source, with some conditions changed.] as §1

T-47D cells = experiment: Cell proliferation assay (GI50) in T-47D cells; type: cell-based; conditions: Homo sapiens, T47D, 48 h
Procedure: as §1

[2] = test system: SW620 (colorectal cancer cell line); experiment: Cell proliferation assay (GI50) in SW620 cells; type: cell-based; conditions: Homo sapiens, SW-620; SW620, 48 h
Procedure: [Worded in the source for another cell line; used here, by the source, with some conditions changed.] as §1

[3] = test system: Panc-1 (pancreatic cancer cell line); experiment: Cell proliferation assay (GI50) in Panc-1 cells; type: cell-based; conditions: Homo sapiens, PANC-1, 48 h
Procedure: [Worded in the source for another cell line; this cell line is reported under the same test.] as §1

ZR-75-1 cells [4] = experiment: Caspase cascade activation (N-(Ac-DEVD)-N'-ethoxycarbonyl-R110 fluorogenic substrate) in ZR-75-1 cells; type: cell-based, Human; conditions: ZR-75-1, 48 h incubation
Procedure, shortened: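 Cells (0.65×10^6/ml) exposed 48 h at 37 °C to compound (0.016-10 μM final), then lysed with 14 μM DEVD-R110 substrate buffer (PIPES pH 7.2, DTT, lysolecithin) for 3 h at room temperature. Net fluorescence (485/530 nm) relative to control; EC50 by sigmoidal dose-response.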

MDA-MB-435 cells = experiment: Cell proliferation assay (GI50) in MDA-MB-435 cells; type: cell-based; conditions: Homo sapiens, MDA-MB-435, 48 h
Procedure: [Worded in the source for another cell line; this cell line is reported under the same test.] as §1

SK-Br-3 cells = experiment: Cell proliferation assay (GI50) in SK-Br-3 cells; type: cell-based; conditions: Homo sapiens, SK-BR-3, 48 h
Procedure: [Worded in the source for another cell line; this cell line is reported under the same test.] as §1

ZR-75-1 cells [5] = experiment: Cell proliferation assay (GI50) in ZR-75-1 cells; type: cell-based; conditions: Homo sapiens; ZR 75-1, 48 h
Procedure: [Worded in the source for another cell line; this cell line is reported under the same test.] as §1

[6] = test system: PC-3 (prostate cancer cell line); experiment: Cell proliferation assay (GI50) in PC-3 cells; type: cell-based; conditions: Homo sapiens, PC-3, 48 h
Procedure: [Worded in the source for another cell line; this cell line is reported under the same test.] as §1

- GI50 (MCF-7 cells): 100 nM
- GI50 [1]: > 10000 nM
- GI50 (T-47D cells; T-47D, Table II, read-out: GI50): 30 nM
- GI50 (T-47D cells; Table III, read-out: GI50(nM) T47D): 30 nM
- GI50 [2]: > 10000 nM
- GI50 [3]: > 10000 nM
- pEC50 (ZR-75-1 cells [4]; Homo sapiens, caspase activation potency): 6.85
- GI50 (MDA-MB-435 cells): 4500 nM
- GI50 (SK-Br-3 cells): 60 nM
- GI50 [6]: > 10000 nM
Compound: COc1cccc(Nc2cc(C(F)(F)F)nc(-c3ccccn3)n2)c1 [Compound A, 4-(3-methoxyanilino)-2-(2-pyridinyl)-6-(trifluoromethyl)pyrimidine]
- ZR Ratio 48 hr (ZR-75-1 cells [4]; caspase activity: ratio of net RFU of test compound to control): 3.6
- GI50 (ZR-75-1 cells [5]): 100 nM
